IC50 data for four compounds are collected here from BindingDB's records for patent US20240368133 (Confo Therapeutics, 2024).

The test concerns the target T1, Type-2 angiotensin II receptor/Low affinity immunoglobulin epsilon Fc receptor (Homo sapiens, UniProt P06734+P50052).
T1 sequence (P50052 whole entry): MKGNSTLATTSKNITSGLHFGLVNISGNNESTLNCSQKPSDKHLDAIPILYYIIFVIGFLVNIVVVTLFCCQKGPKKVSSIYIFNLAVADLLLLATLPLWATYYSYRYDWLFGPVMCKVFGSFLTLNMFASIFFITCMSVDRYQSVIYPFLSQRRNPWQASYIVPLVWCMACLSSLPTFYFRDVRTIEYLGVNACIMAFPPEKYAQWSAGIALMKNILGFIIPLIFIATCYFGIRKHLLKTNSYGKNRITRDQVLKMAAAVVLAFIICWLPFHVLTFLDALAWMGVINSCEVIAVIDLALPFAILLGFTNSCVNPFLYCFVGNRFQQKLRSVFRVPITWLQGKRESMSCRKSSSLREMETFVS
T1 sequence (P06734 whole entry): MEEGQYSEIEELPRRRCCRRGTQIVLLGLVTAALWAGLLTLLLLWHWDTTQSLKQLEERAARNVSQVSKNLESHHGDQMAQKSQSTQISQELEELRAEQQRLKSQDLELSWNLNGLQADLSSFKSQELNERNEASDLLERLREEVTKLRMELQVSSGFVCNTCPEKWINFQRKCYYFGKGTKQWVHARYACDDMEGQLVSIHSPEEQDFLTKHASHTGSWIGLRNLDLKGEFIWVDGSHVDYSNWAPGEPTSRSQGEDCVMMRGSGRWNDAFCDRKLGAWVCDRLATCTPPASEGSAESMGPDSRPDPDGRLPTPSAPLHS
Put plainly: Radioligand Assay. The method, then: All synthesized ligands were evaluated in a radioligand assay by displacing 125I-[Sar1, Ile8]-Angiotensin II (Perkin Elmer, NEX248050UC) from human AT2R fused to Cb23 or human/rodent/cynomolgus/minipig/dog WT AT2R in HEK-293 cells membrane preparations, using C21 (Vicore Pharma) and Angiotensin II (endogenous ligand) as reference. The affinity was determined using an eight-point dose-response curve, each point performed in duplicates. The compounds were also evaluated in a counterscreen binding assay for displacement of 125I-[Sar1, Ile8]-Angiotensin II binding to human AT1R in HEK-293 cell membranes. For AT1R, the percent displacement was determined at 1 μM and […] or using an eight-point dose-response curve, each point performed in duplicates with Candesartan and Losartan used as reference.For the AT2R/AT1R binding assays, cell membranes, expressing AT2R_Cb23, AT2R or AT1R, were incubated with 0.05 nM 125I-[Sarl, Ile8]-Ang II. The ligand competition assay was performed in a total volume of 100 μL assay buffer (50 mM Tris, 5 mM MgCl2, 1 mM EDTA, 0.1% BSA, pH 7.4), at concentrations ranging from 1 μM to 10 μM. For each experiment, each ligand concentration was tested in duplicate. Non-specific binding (NSB) was determined by the inclusion of 10 μM unlabeled [Sarl]-Ang II (Sigma Aldrich). The reaction was initiated by the addition of radioligand, after which the plates were incubated at 25° C. for one hour. The reaction was terminated by rapid filtration using a vacuum harvester, applying six washes with 100 μL of ice-cold wash buffer (50 mM Tris.HCl, pH 7.4). The filter plates GF/C (Perkin Elmer) were pre-soaked in 0.5% PEI. The residual amount of radioactivity was determined via liquid scintillation counting. IC50 values, representing the concentration at which each ligand displaced 50% of 125I-[Sarl, Ile8]-Ang II, were calculated using GraphPad Prism 7.02 by applying a Non-linear regression equation (variable slope, four parameters) on the data.

SMILES strings stand for the structures.

By IC50 is commonly meant the concentration that gives 50% inhibition. The low end stands for inhibition by little substance, the high end for a need for much substance. Compound `CC(C)Cc1ccc(-c2nn[nH]n2)c(N2CCN(Cc3nc4ncccc4o3)CC2)c1` [US20240368133, Compound A-71] had an IC50 of 18.5 µM.
For `c1ccc2sc(CN3CCN(c4cc(NCC5CC5)ccc4-c4nn[nH]n4)CC3)nc2c1` [US20240368133, Compound A-62], the IC50 was determined as 1.68 µM.
`CCc1nc2ccc(NC(=O)c3ccccc3)cc2c(=O)n1CC1CCN(c2ccccc2-c2nn[nH]n2)CC1` [US20240368133, Compound A-245] yielded an IC50 of 9.97 µM.
The figure for `CCCCNC(=O)NS(=O)(=O)c1ccc(C(F)(F)F)cc1N1CCN(Cc2nc3ccccc3n2C)CC1` [US20240368133, Compound A-10] is 3.36 µM.
